Source: article PMC8303886, “Polyphenylglyoxamide-Based Amphiphilic Small Molecular Peptidomimetics as Antibacterial Agents with Anti-Biofilm Activity” (International Journal of Molecular Sciences, 2021)
Values after ≈ are worked out from the molar mass of the structure shown. Values joined by “and” are separate entries in the source; they are usually repeats but may differ in a detail not shown here. Equal entries are not always repeated. Where two headings read alike, the source gives them in different places.

Assays:
S. aureus (SA38) [1] = conditions: previously reported, cited from earlier work
S. aureus (SA38) [2] = experiment: Minimum inhibitory concentration (MIC) assay against S. aureus; format: cell-based, Staphylococcus aureus; conditions: S. aureus SA38, read-out: MIC S. aureus
[3] = tested on: MRC-5 normal human lung fibroblasts; experiment: MTT cytotoxicity assay; format: cell-based; conditions: 72 h drug incubation; for IC50: read-out: IC50 against MRC-5 normal human lung fibroblasts
Description: The IC50 values of the tested peptidomimetics were determined from a dose-response curve. […] The therapeutic indices for each tested peptidomimetic against Gram-positive S. aureus and Gram-negative E. coli were calculated by dividing the IC50 value against human cells by the corresponding MIC value (Table 2).
The toxicity of the peptidomimetics against normal human lung fibroblasts MRC-5 cells was measured, using an MTT (3-(4,5-dimethylthiazol-2-yl)-2,5-diphenyltetrazolium bromide) (Sigma Aldrich, St. Louis, MO, USA) colorimetric assay. The cells were cultured in minimal essential medium (MEM, Invitrogen) containing 10% foetal bovine serum (FBS). The cells were maintained at 37 °C in 5% CO2 as an adherent monolayer and was passaged upon reaching confluence by standard cell culture techniques. MRC-5 cells were seeded at 5000 cells/well in 96-well plates to ensure full confluence (quiescence) and left overnight to adhere to the plate wells. The adherent cells were treated with 1–500 μM of compounds by dissolving in DMSO and serially diluting with media. TY-01 was used as the positive control. The final concentration of DMSO was 0.5% (v/v). After the 72 h drug incubation, […] stock MTT solution (5 mg/mL) was added, and the cells were incubated for another 3.5–4 h. The MTT solution containing media was carefully aspirated without displacing the purple crystals from the bottom, and […] acid-isopropanol was added to all wells and mixed slowly by shaking with an orbital shaker to dissolve the dark blue crystals. […] The determination of IC50 values was performed using GraphPad Prism 7 (GraphPad, San Diego, CA, USA). Each experiment was performed in triplicate and was repeated in three independent experiments.

CCCCCCCCS(=O)(=O)Nc1ccccc1C(=O)C(=O)NCCCN(C)C [Compound 10a]
MIC S. aureus (S. aureus (SA38) [1]): 250 μM and 106 μg/mL

CCCCCCCCS(=O)(=O)Nc1ccc(Br)cc1C(=O)C(=O)NCCCN(C)C [Compound 10b]
MIC S. aureus (S. aureus (SA38) [1]): 94 μM and 47 μg/mL

CCCCCCCCS(=O)(=O)Nc1ccc(-c2ccccc2)cc1C(=O)C(=O)NCCCN(C)C [Compound 10c]
MIC S. aureus (S. aureus (SA38) [1]): 24 μM and 12 μg/mL

CCCCCCCCS(=O)(=O)Nc1ccc(-c2ccc(-c3ccccc3)cc2)cc1C(=O)C(=O)NCCCN(C)C [Compound 10d, N-(3-(Dimethylamino)propyl)-2-(4-(octylsulfonamido)-[1,1′:4′,1″-terphenyl]-3-yl)-2-oxoacetamide]
MIC (S. aureus (SA38) [2]): 8 µM | MIC (S. aureus (SA38) [2]; Staphylococcus aureus): 4.6 µg/mL | IC50 [3]: 3.48 µM | IC50 ([3]; Homo sapiens, MRC5, 72 h): 2.01 µg/mL

CCCCCCCCCCCCS(=O)(=O)Nc1ccccc1C(=O)C(=O)NCCCN(C)C [Compound 11a, N-(3-(Dimethylamino)propyl)-2-(2-(dodecylsulfonamido)phenyl)-2-oxoacetamide]
MIC (S. aureus (SA38) [2]): 32 µM | MIC (S. aureus (SA38) [2]; Staphylococcus aureus): 15 µg/mL

CCCCCCCCCCCCS(=O)(=O)Nc1ccc(Br)cc1C(=O)C(=O)NCCCN(C)C [Compound 11b, 2-(5-Bromo-2-(dodecylsulfonamido)phenyl)-N-(3-(dimethylamino)propyl)-2-oxoacetamide]
MIC (S. aureus (SA38) [2]): 32 µM | MIC (S. aureus (SA38) [2]; Staphylococcus aureus): 18 µg/mL

CCCCCCCCCCCCS(=O)(=O)Nc1ccc(-c2ccccc2)cc1C(=O)C(=O)NCCCN(C)C [Compound 11c, N-(3-(Dimethylamino)propyl)-2-(4-(dodecylsulfonamido)-[1,1′-biphenyl]-3-yl)-2-oxoacetamide]
MIC (S. aureus (SA38) [2]; Staphylococcus aureus): 16 µM and 8.9 µg/mL

CCCCCCCCCCCCS(=O)(=O)Nc1ccc(-c2ccc(-c3ccccc3)cc2)cc1C(=O)C(=O)NCCCN(C)C [Compound 11d, N-(3-(Dimethylamino)propyl)-2-(4-(dodecylsulfonamido)-[1,1′:4′,1″-terphenyl]-3-yl)-2-oxoacetamide]
MIC (S. aureus (SA38) [2]; Staphylococcus aureus): 250 µM and 158 µg/mL

CCCCCCCCCCCCCCCCS(=O)(=O)Nc1ccccc1C(=O)C(=O)NCCCN(C)C [Compound 12a, N-(3-(Dimethylamino)propyl)-2-(2-(hexadecylsulfonamido)phenyl)-2-oxoacetamide]
MIC (S. aureus (SA38) [2]; Staphylococcus aureus): 63 µM and 34 µg/mL

CCCCCCCCCCCCCCCCS(=O)(=O)Nc1ccc(Br)cc1C(=O)C(=O)NCCCN(C)C [Compound 12b, 2-(5-Bromo-2-(hexadecylsulfonamido)phenyl)-N-(3-(dimethylamino)propyl)-2-oxoacetamide]
MIC (S. aureus (SA38) [2]; Staphylococcus aureus): 250 µM and 154 µg/mL

CCCCCCCCS(=O)(=O)Nc1ccccc1C(=O)C(=O)NCCCN(C)C [Compound 13a]
MIC S. aureus (S. aureus (SA38) [1]): > 250 μM and > 116 μg/mL

CCCCCCCCS(=O)(=O)Nc1ccc(Br)cc1C(=O)C(=O)NCCCN(C)C [Compound 13b]
MIC S. aureus (S. aureus (SA38) [1]): 63 μM and 34 μg/mL

CCCCCCCCS(=O)(=O)Nc1ccc(-c2ccccc2)cc1C(=O)C(=O)NCCCN(C)C [Compound 13c]
MIC S. aureus (S. aureus (SA38) [1]): 16 μM and 8.6 μg/mL

CCCCCCCCS(=O)(=O)Nc1ccc(-c2ccc(-c3ccccc3)cc2)cc1C(=O)C(=O)NCCCN(C)C.Cl [Compound 13d, N,N-Dimethyl-3-(2-(4-(octylsulfonamido)-[1,1′:4′,1″-terphenyl]-3-yl)-2-oxoacetamido)propan-1-aminium chloride]
MIC (S. aureus (SA38) [2]; Staphylococcus aureus): 16 µM and 9.8 µg/mL | IC50 against MRC-5 normal human lung fibroblasts [3]: 2.31 µg/mL | IC50 [3]: 3.76 µM | IC50 ([3]; Homo sapiens, MRC5, 72 h): ~4 µM and ~2 µg/mL

CCCCCCCCCCCCS(=O)(=O)Nc1ccccc1C(=O)C(=O)NCCCN(C)C.Cl [Compound 14a, 3-(2-(2-(Dodecylsulfonamido)phenyl)-2-oxoacetamido)-N,N-dimethylpropan-1-aminium chloride]
MIC (S. aureus (SA38) [2]; Staphylococcus aureus): 16 µM and 8.3 µg/mL

CCCCCCCCCCCCS(=O)(=O)Nc1ccc(Br)cc1C(=O)C(=O)NCCCN(C)C.Cl [Compound 14b, 3-(2-(5-Bromo-2-(dodecylsulfonamido)phenyl)-2-oxoacetamido)-N,N-dimethylpropan-1-aminium chloride]
MIC (S. aureus (SA38) [2]; Staphylococcus aureus): 16 µM and 9.6 µg/mL

CCCCCCCCCCCCS(=O)(=O)Nc1ccc(-c2ccccc2)cc1C(=O)C(=O)NCCCN(C)C.Cl [Compound 14c, 3-(2-(4-(Dodecylsulfonamido)-[1,1′-biphenyl]-3-yl)-2-oxoacetamido)-N,N-dimethylpropan-1-aminium chloride]
MIC (S. aureus (SA38) [2]): 16 µM | MIC (S. aureus (SA38) [2]; Staphylococcus aureus): 9.5 µg/mL

CCCCCCCCCCCCS(=O)(=O)Nc1ccc(-c2ccc(-c3ccccc3)cc2)cc1C(=O)C(=O)NCCCN(C)C.Cl [Compound 14d, 3-(2-(4-(Dodecylsulfonamido)-[1,1′:4′,1″-terphenyl]-3-yl)-2-oxoacetamido)-N,N-dimethylpropan-1-aminium chloride]
MIC (S. aureus (SA38) [2]): 125 µM | MIC (S. aureus (SA38) [2]; Staphylococcus aureus): 84 µg/mL

CCCCCCCCCCCCCCCCS(=O)(=O)Nc1ccccc1C(=O)C(=O)NCCCN(C)C.Cl [Compound 15a, 3-(2-(2-(Hexadecylsulfonamido)phenyl)-2-oxoacetamido)-N,N-dimethylpropan-1-aminium chloride]
MIC (S. aureus (SA38) [2]): 63 µM | MIC (S. aureus (SA38) [2]; Staphylococcus aureus): 36 µg/mL

CCCCCCCCCCCCCCCCS(=O)(=O)Nc1ccc(Br)cc1C(=O)C(=O)NCCCN(C)C.Cl [Compound 15b, 3-(2-(5-Bromo-2-(hexadecylsulfonamido)phenyl)-2-oxoacetamido)-N,N-dimethylpropan-1-aminium chloride]
MIC (S. aureus (SA38) [2]): 250 µM | MIC (S. aureus (SA38) [2]; Staphylococcus aureus): 163 µg/mL

CCCCCCCCCCCCCCCCS(=O)(=O)Nc1ccc(-c2ccccc2)cc1C(=O)C(=O)NCCCN(C)C.Cl [Compound 15c, 3-(2-(4-(Hexadecylsulfonamido)-[1,1′-biphenyl]-3-yl)-2-oxoacetamido)-N,N-dimethylpropan-1-aminium chloride]
MIC (S. aureus (SA38) [2]): > 250 µM | MIC (S. aureus (SA38) [2]; Staphylococcus aureus): > 163 µg/mL

CCCCCCCCCCCCS(=O)(=O)Nc1ccccc1C(=O)C(=O)NCCC[N+](C)(C)C.[I-] [Compound 17a, 3-(2-(2-(Dodecylsulfonamido)phenyl)-2-oxoacetamido)-N,N,N-trimethylpropan-1-aminium iodide]
MIC (S. aureus (SA38) [2]; Staphylococcus aureus): 16 µM and 10 µg/mL

CCCCCCCCCCCCS(=O)(=O)Nc1ccc(-c2ccc(-c3ccccc3)cc2)cc1C(=O)C(=O)NCCC[N+](C)(C)C.[I-] [Compound 17d, 3-(2-(4-(Dodecylsulfonamido)-[1,1′:4′,1″-terphenyl]-3-yl)-2-oxoacetamido)-N,N,N-trimethylpropan-1-aminium iodide]
MIC (S. aureus (SA38) [2]; Staphylococcus aureus): 63 µM and 48 µg/mL

CCCCCCCCCCCCCCCCS(=O)(=O)Nc1ccc(Br)cc1C(=O)C(=O)NCCC[N+](C)(C)C.[I-] [Compound 18b, 3-(2-(5-Bromo-2-(hexadecylsulfonamido)phenyl)-2-oxoacetamido)-N,N,N-trimethylpropan-1-aminium iodide]
MIC (S. aureus (SA38) [2]; Staphylococcus aureus): 125 µM and 95 µg/mL

CCCCCCCCCCCCCCCCS(=O)(=O)Nc1ccc(-c2ccccc2)cc1C(=O)C(=O)NCCC[N+](C)(C)C.[I-] [Compound 18c, 3-(2-(4-(Hexadecylsulfonamido)-[1,1′-biphenyl]-3-yl)-2-oxoacetamido)-N,N,N-trimethylpropan-1-aminium iodide]
MIC (S. aureus (SA38) [2]; Staphylococcus aureus): 250 µM and 189 µg/mL

CCCCCCCCS(=O)(=O)Nc1ccc(-c2cccc(-c3ccccc3)c2)cc1C(=O)C(=O)NCCCN(C)C [Compound 21, N-(3-(Dimethylamino)propyl)-2-(4-(octylsulfonamido)-[1,1′:3′,1″-terphenyl]-3-yl)-2-oxoacetamide]
MIC (S. aureus (SA38) [2]; Staphylococcus aureus): 16 µM and 9.2 µg/mL

CCCCCCCCS(=O)(=O)Nc1ccc(-c2cccc(-c3ccccc3)c2)cc1C(=O)C(=O)NCCCN(C)C.Cl [Compound 22, N,N-Dimethyl-3-(2-(4-(octylsulfonamido)-[1,1′:3′,1″-terphenyl]-3-yl)-2-oxoacetamido)propan-1-aminium chloride]
MIC (S. aureus (SA38) [2]): 16 µM | MIC (S. aureus (SA38) [2]; Staphylococcus aureus): 9.8 µg/mL | IC50 ([3]; Homo sapiens, MRC5, 72 h): 3.46 µM and 2.13 µg/mL

CCCCCCCCS(=O)(=O)Nc1ccc(-c2cccc(-c3ccccc3)c2)cc1C(=O)C(=O)NCCC[N+](C)(C)C.[I-] [Compound 23, N,N,N-Trimethyl-3-(2-(4-(octylsulfonamido)-[1,1′:3′,1″-terphenyl]-3-yl)-2-oxoacetamido)propan-1-aminium iodide]
MIC (S. aureus (SA38) [2]; Staphylococcus aureus): 8 µM and 5.8 µg/mL | IC50 ([3]; Homo sapiens, MRC5, 72 h): 15.4 µM and 11.1 µg/mL

CCCCCCCCS(=O)(=O)Nc1ccccc1C(=O)C(=O)NCCCNC(=N)N [Compound 33a]
MIC S. aureus (S. aureus (SA38) [1]): 47 μM and 22 μg/mL

CCCCCCCCS(=O)(=O)Nc1ccc(Br)cc1C(=O)C(=O)NCCCNC(=N)N [Compound 33b]
MIC S. aureus (S. aureus (SA38) [1]; listed as 1, 33b): 12 μM and 6.7 μg/mL | MIC S. aureus (S. aureus (SA38) [1]; listed as 1): 12 µM (≈ 6.22 µg/mL)

CCCCCCCCCCCCCCCCS(=O)(=O)Nc1ccccc1C(=O)C(=O)NCCCNC(=N)N.Cl [Compound 35a, N-(3-Guanidinopropyl)-2-(2-(hexadecylsulfonamido)phenyl)-2-oxoacetamide hydrochloride]
MIC (S. aureus (SA38) [2]; Staphylococcus aureus): 250 µM and 147 µg/mL
